# In patent US9701670B2, “Pyrazolyl-ureas as kinase inhibitors” (RESPIVERT LIMITED, priority 2013, dated 2017):
# Legend:
# [1] = target: T1, p38 MAPKα isoform (MAPK14) (Homo sapiens (Human), UniProt Q16539); experiment: p38 MAPKα enzyme inhibition (FRET, Z-LYTE), Method 2; format: biochemical; conditions: Method 2, different laboratory (Table 4a2)
# Procedure: (§1) The enzyme inhibitory activities of compounds disclosed herein are determined by FRET using synthetic peptides labelled with both donor and acceptor fluorophores (Z-LYTE, Invitrogen Ltd., Paisley, UK).
# The inhibitory activities of test compounds against the p38 MAPKα isoform (MAPK14: Invitrogen), are evaluated indirectly by determining the level of activation/phosphorylation of the down-stream molecule, MAPKAP-K2. The p38 MAPKα protein (80 ng/mL, 2.5 μL) is mixed with the test compound (2.5 μL of either 4 μg/mL, 0.4 μg/mL, 0.04 μg/mL or 0.004 μg/mL) for 2 hr at RT. […] The mixture is incubated for 1 hr at RT. Development reagent (protease, 5 μL) is added for 1 hr prior to detection in a fluorescence microplate reader (Varioskan® Flash, ThermoFisher Scientific).
# (§2) In all cases, the site-specific protease cleaves non-phosphorylated peptide only and eliminates the FRET signal. Phosphorylation levels of each reaction are calculated using the ratio of coumarin emission (donor) over fluorescein emission (acceptor), for which high ratios indicate high phosphorylation and low ratios indicate low phosphorylation levels.
# GSK 3α = GSK 3α (Homo sapiens (Human), UniProt P49840); experiment: GSK 3α enzyme inhibition (FRET, Z-LYTE), Method 2; format: biochemical; conditions: Method 2, different laboratory (Table 4a2); read-out: IC50 Values for Enzyme Inhibition GSK3α
# Procedure: as §1
# The inhibitory activities of compounds of the invention against the GSK 3α enzyme isoform (Invitrogen), are evaluated by determining the level of activation/phosphorylation of the target peptide. The GSK3-α protein (500 ng/mL, 2.5 μL) is mixed with the test compound (2.5 μL at either 4 μg/mL, 0.4 μg/mL, 0.04 μg/mL, or 0.004 μg/mL) for 2 hr at RT. The FRET peptide (8 μM, 2.5 μL), which is a phosphorylation target for GSK3α, and ATP (40 μM, 2.5 μL) are then added to the enzyme/compound mixture and the resulting mixture incubated for 1 hr. Development reagent (protease, 5 μL) is added for 1 hr prior to detection in a fluorescence microplate reader (Varioskan® Flash, ThermoFisher Scientific).
# as §2
# [2] = test system: β-catenin in d-U937 cells; experiment: (m) Accumulation of β catenin in d-U937 cells; format: cell-based, human
# Procedure: U937 cells, a human monocytic cell line, are differentiated into macrophage-type cells by incubation with PMA; (100 ng/mL) for between 48 to 72 hr. The cells are then incubated with either final concentrations of test compound or vehicle for 18 hr. The induction of β-catenin by the test compounds is stopped by replacing the media with 4% formaldehyde solution. Endogenous peroxide activity is neutralised by incubating with quenching buffer (100 μL, 0.1% sodium azide, 1% H2O2 in PBS with 0.05% Tween-20) for 20 min. The cells are washed with washing buffer (200 μL; PBS containing 0.05% Tween-20) and incubated with blocking solution (200 μL; 5% milk in PBS) for 1 hr, re-washed with washing buffer (200 μL) and then incubated overnight with anti-β-catenin antibody solution (50 μL) in 1% BSA/PBS (BD, Oxford, UK).
# After washing with washing buffer (3×200 μL; PBS containing 0.05% Tween-20), cells are incubated with an HRP-conjugated secondary antibody solution (100 μL) in 1% BSA/PBS (Dako, Cambridge, UK) and the resultant signal is determined colourimetrically (OD: 450 nm with a reference wavelength of 655 nm) using TMB substrate (50 μL; R&D Systems, Abingdon, UK). This reaction is stopped by addition of 1N H2SO4 solution (50 μL). Cells are then washed with washing buffer and 2% crystal violet solution (50 μL) is applied for 30 min. After washing with washing buffer (3×200 μL), 1% SDS (100 μL) is added to each well and the plates are shaken lightly for 1 hr prior to measuring the absorbance at 595 nm (Varioskan® Flash, Thermo-Fisher Scientific).
# The measured OD450-655 readings are corrected for cell number by dividing the OD450-655 by the OD595 readings. […] A signal less than 0.15 (15%) of that observed for the standard control is designated as “-ve”.
# [3] = target: T1, p38 MAPKα isoform (MAPK14); experiment: p38 MAPKα enzyme inhibition (FRET, Z-LYTE), Method 1; format: biochemical; conditions: Method 1 (Table 4a1)
# [4] = test system: Differentiated U937 cells; experiment: (l) Cell viability: MTT assay; format: cell-based, human; conditions: 1 μg/mL
# Method in brief: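 MTT read-out (1 h, absorbance 550 nm) on d-U937 cells after pre-incubation with 1 or 10 μg/mL compound under two regimes: 4 h, 5% FCS, or 24 h, 10% FCS RPMI1640. Values are percent loss of viability relative to vehicle (0.5% DMSO), so increases are reported as negative.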
# [5] = test system: Intestinal mucosa biopsies from the inflamed regions of the colon of IBD patients; experiment: (h) Human biopsy assay (cytokine release); format: cell-based
# Procedure: Intestinal mucosa biopsies are obtained from the inflamed regions of the colon of IBD patients. The biopsy material is cut into small pieces (2-3 mm) and placed on steel grids in an organ culture chamber at 37° C. in a 5% CO2/95% O2 atmosphere in serum-free media. DMSO control or test compounds at the desired concentration are added to the tissue and incubated for 24 hr in the organ culture chamber. The supernatant is harvested for determination of IL-6, IL-8, […] and TNFα levels by R&D ELISA.
# BDF1 mice = experiment: (C) TNBS-induced colitis in mice; format: in vivo, mouse; design: TNBS Ulcer grade / TNBS LP inflammation: scale not given here; conditions: 2 days; for TNBS LP inflammation / TNBS Ulcer grade: mice
# Procedure: Non-fasted, 10-12 week old, male BDF1 mice are dosed by oral gavage twice daily with either vehicle (5 mL/kg), reference item (Budesonide 2.5 mg/kg) or test compound (1, 5 or 50 mg/kg) one day before (Day −1) stimulation of the inflammatory response by treatment with 2,4,6-trinitrobenzenesulphonic acid (TNBS) (15 mg/mL in 50% ethanol/50% saline). On Day 0 of the study TNBS (200 μL) is administered intra-colonically via a plastic catheter followed by BID dosing of the vehicle, reference or test compound for 2 or 4 days. During the study animals are weighed every day and stool observations are made and recorded as a score, based on stool consistency. At the time of sacrifice on Day 2 (or Day 4) the large intestine is removed and the length and weight recorded. Sections of the colon are taken for either MPO analysis to determine neutrophil infiltration or for histopathology involving scoring to determine disease severity.
# GSK 3α, sequence (P49840 whole entry): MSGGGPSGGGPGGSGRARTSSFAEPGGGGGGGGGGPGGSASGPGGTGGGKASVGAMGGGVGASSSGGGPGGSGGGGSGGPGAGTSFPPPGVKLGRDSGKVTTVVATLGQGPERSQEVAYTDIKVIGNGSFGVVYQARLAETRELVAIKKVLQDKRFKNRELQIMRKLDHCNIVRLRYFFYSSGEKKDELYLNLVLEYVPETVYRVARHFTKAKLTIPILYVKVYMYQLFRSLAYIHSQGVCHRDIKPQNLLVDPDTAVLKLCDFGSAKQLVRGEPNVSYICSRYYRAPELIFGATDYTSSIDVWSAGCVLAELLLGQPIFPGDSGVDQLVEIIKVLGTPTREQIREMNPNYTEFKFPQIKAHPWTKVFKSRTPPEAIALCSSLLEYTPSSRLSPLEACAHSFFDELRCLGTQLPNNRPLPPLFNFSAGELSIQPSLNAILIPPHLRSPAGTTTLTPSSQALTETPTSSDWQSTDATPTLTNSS
# T1 sequence (Q16539 whole entry, canonical isoform): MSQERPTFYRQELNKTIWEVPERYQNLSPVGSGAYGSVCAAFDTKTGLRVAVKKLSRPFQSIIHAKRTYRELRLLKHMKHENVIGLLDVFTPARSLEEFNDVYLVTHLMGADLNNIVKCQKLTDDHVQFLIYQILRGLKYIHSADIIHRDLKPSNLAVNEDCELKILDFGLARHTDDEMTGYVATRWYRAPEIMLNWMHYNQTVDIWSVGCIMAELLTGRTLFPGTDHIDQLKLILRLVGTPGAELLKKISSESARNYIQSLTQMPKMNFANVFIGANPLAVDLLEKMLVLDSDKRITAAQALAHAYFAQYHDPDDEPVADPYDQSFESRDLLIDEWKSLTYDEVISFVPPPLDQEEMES
Compound,IC50 [1] [µM],IC50 (GSK 3α) [µM],IC50 [3] [µM],Cell viability at time point in d-U937 cells 4 h [4],Cell viability at time point in d-U937 cells 24 h [4],other results
"C#Cc1cc(Nc2nccc(Oc3ccc(NC(=O)Nc4cc(C(C)(C)C)nn4-c4ccc(OC)cc4)c4ccccc34)n2)cc(C(=O)NCCOC)c1 [Example 84, 3-((4-((4-(3-(3-(tert-Butyl)-1-(4-methoxyphenyl)-1H-pyrazol-5-yl)ureido)-naphthalen-1-yl)oxy)pyrimidin-2-yl)amino)-5-ethynyl-N-(2-methoxyethyl)benzamide]",0.105,13.8,–,–,–,% β-catenin induction ([2]; 1 μg/mL test compound): 3%; % β-catenin induction ([2]; 5 μg/mL test compound): 3%; % β-catenin induction ([2]; 10 μg/mL test compound): 5%
"CCc1cc(NC(=O)Nc2ccc(Oc3ccnc(Nc4cc(OC)cc(C(=O)NCCN5CCOCC5)c4)n3)c3ccccc23)n(-c2ccc(C)cc2)n1 [Example 49, 3-((4-((4-(3-(3-ethyl-1-(p-tolyl)-1H-pyrazol-5-yl)ureido)naphthalen-1-yl)oxy)pyrimidin-2-yl)amino)-5-methoxy-N-(2-morpholinoethyl)benzamide]",–,13.5,0.002,"−ve (−ve and +ve indicate that the value is below and above respectively, the no significant effect threshold, defined as 30% inhibition at 1 μg/mL at the time point indicated.)","−ve (−ve and +ve indicate that the value is below and above respectively, the no significant effect threshold, defined as 30% inhibition at 1 μg/mL at the time point indicated.)",–
"C#Cc1cc(Nc2nccc(Oc3ccc(NC(=O)Nc4cc(C(C)C)nn4-c4ccc(C)cc4)c4ccccc34)n2)cc(C(=O)NCCN2CCOCC2)c1 [Example 46, 3-ethynyl-5-((4-((4-(3-(3-isopropyl-1-(p-tolyl)-1H-pyrazol-5-yl)ureido)naphthalen-1-yl)oxy)pyrimidin-2-yl)amino)-N-(2-morpholinoethyl)benzamide]",0.041,–,–,"−ve (−ve and +ve indicate that the value is below and above respectively, the no significant effect threshold, defined as 30% inhibition at 1 μg/mL at the time point indicated.)","−ve (−ve and +ve indicate that the value is below and above respectively, the no significant effect threshold, defined as 30% inhibition at 1 μg/mL at the time point indicated.)","Cytokine release from biopsies of UC patients IL-1b release ([5]; 1 μg/mL, DMSO control 100%): 35 ± 14%; Cytokine release from biopsies of UC patients IL-6 release ([5]; 1 μg/mL, DMSO control 100%): 44 ± 38%; Cytokine release from biopsies of UC patients IL-8 release ([5]; 1 μg/mL, DMSO control 100%): 49 ± 35%; cytokine release from biopsies from ulcerative colitis (UC) patients ([5]; added to biopsies in vitro): markedly reduced IL-1b, IL-6 and IL-8 release; histopathology analysis, in vivo model of colonic inflammation (BDF1 mice; TNBS-induced colitis, dosed orally at 5 mg/kg): significant activity; TNBS LP inflammation (BDF1 mice; 1 mg/kg oral BID): 3.1 ± 0.6; TNBS Ulcer grade (BDF1 mice; 1 mg/kg oral BID): 3.4 ± 0.6; TNBS LP inflammation (BDF1 mice; 5 mg/kg oral BID): 2.0 ± 0.5; TNBS Ulcer grade (BDF1 mice; 5 mg/kg oral BID): 2.4 ± 0.6"
"C#Cc1cc(Nc2nccc(Oc3ccc(NC(=O)Nc4cc(C(C)C)nn4-c4ccc(C)cc4)c(Cl)c3Cl)n2)cc(C(N)=O)c1 [Example 89, 3-((4-(2,3-Dichloro-4-(3-(3-isopropyl-1-(p-tolyl)-1H-pyrazol-5-yl)ureido)-phenoxy)pyrimidin-2-yl)amino)-5-ethynylbenzamide]",–,15.3,–,–,–,–

# More lines, in order of falling IC50 (GSK 3α), values ahead:
IC50 [1] [µM],IC50 (GSK 3α) [µM],IC50 [3] [µM],Compound,Cell viability at time point in d-U937 cells 4 h [4],Cell viability at time point in d-U937 cells 24 h [4],other results
–,13.3,0.002,"COc1cc(Nc2nccc(Oc3ccc(NC(=O)Nc4cc(C5CC5)nn4-c4ccc(C)cc4)c4ccccc34)n2)cc(C(=O)NCCN2CCOCC2)c1 [Example 50, 3-((4-((4-(3-(3-cyclopropyl-1-(p-tolyl)-1H-pyrazol-5-yl)ureido)naphthalen-1-yl)oxy)pyrimidin-2-yl)amino)-5-methoxy-N-(2-morpholinoethyl)benzamide]","−ve (−ve and +ve indicate that the value is below and above respectively, the no significant effect threshold, defined as 30% inhibition at 1 μg/mL at the time point indicated.)","−ve (−ve and +ve indicate that the value is below and above respectively, the no significant effect threshold, defined as 30% inhibition at 1 μg/mL at the time point indicated.)",–
–,13.2,0.013,"COc1cc(C(=O)NCCN2CCOCC2)ccc1Nc1nccc(Oc2ccc(NC(=O)Nc3cc(C(C)C)nn3-c3ccc(C)cc3)c3ccccc23)n1 [Example 36, 4-((4-((4-(3-(3-isopropyl-1-(p-tolyl)-1H-pyrazol-5-yl)ureido)naphthalen-1-yl)oxy)pyrimidin-2-yl)amino)-3-methoxy-N-(2-morpholinoethyl)benzamide]","−ve (−ve and +ve indicate that the value is below and above respectively, the no significant effect threshold, defined as 30% inhibition at 1 μg/mL at the time point indicated.)","−ve (−ve and +ve indicate that the value is below and above respectively, the no significant effect threshold, defined as 30% inhibition at 1 μg/mL at the time point indicated.)",–
1.21,12.1,–,"C#Cc1cc(Nc2nccc(Oc3ccc(NC(=O)Nc4cc(C(F)(F)C(F)(F)F)nn4-c4ccc(C)cc4)c4ccccc34)n2)cc(C(=O)NCCN2CCOCC2)c1 [Example 74, 3-Ethynyl-N-(2-morpholinoethyl)-5-((4-((4-(3-(3-(perfluoroethyl)-1-(p-tolyl)-1H-pyrazol-5-yl)ureido)naphthalen-1-yl)oxy)pyrimidin-2-yl)amino)benzamide]",–,–,–
